# Columns and labels:
# [1] = tested on: lorcaserin–saline-trained rats; assay: Two-lever drug discrimination, lorcaserin (0.75 mg/kg) vs saline; assay type: in vivo, rat
# Method: (§1) Experimentally naïve male Sprague-Dawley rats (n = 43; Envigo, Inc.) weighing 300–325 g at the beginning of the experiment were housed two per cage in a temperature- (21–23°C) and humidity- (45–50%) controlled environment; lighting was maintained under a 12-h light–dark cycle (0700–1900 h). Rats were maintained at 80–90% of their free-feeding weights by restricting access to water. Rats received water during daily training sessions (5–6 ml/rat/session), in the afternoon several hours after training (20 min), and over the weekend (36 h). Experiments were conducted during the light phase of the light–dark cycle (between 0900 and 1200 h) and were carried out in accordance with the National Institutes of Health Guide for the Care and Use of Laboratory Animals and with the approval of the Institutional Animal Care and Use Committee at University of Texas Medical Branch.
# (§2) The procedures were conducted in commercially available two-lever operant chambers (Med Associates, St. Albans, VT). Each chamber was equipped with a water-filled dispenser mounted equidistantly between two retractable response levers on the wall and housed in a light- and soundproof cubicle. Illumination came from a 28-V house light; ventilation and masking noise were provided by a ventilation fan in the right-side wall. A computer with Med-PC IV software was used to run programs and record all experimental events.
# (§3) Standard two-lever, water-reinforced drug discrimination procedures were used ([Appel and Cunningham, 1986]; [Callahan and Cunningham, 1995]; [Colpaert, 1999]). Three cohorts (n = 13–16/cohort) were trained to discriminate an injection of a training drug from saline (1.0 ml/kg, i.p.) administered 15 min before start of daily (Monday–Friday) training sessions. In one cohort (n = 14), rats were trained to discriminate the training drug lorcaserin (0.75 mg/kg, 1.0 ml/kg, i.p.) from saline. In a second cohort (n = 13), rats were trained to discriminate the training drug WAY163909 (0.75 mg/kg, 1.0 ml/kg, i.p.) from saline. In the third cohort, rats (n = 16) were trained to discriminate the training drug cocaine (5 mg/kg, 1.0 ml/kg, i.p.) from saline. Two rats in the lorcaserin–saline cohort were excluded from the present study due to failure to maintain the discrimination. Rats in the WAY163909–saline cohort also participated in additional studies ([Wild et al., 2018]); the WAY163909 dose–response curve was reevaluated between studies; a washout period was allowed, and no carryover effects were observed.
# (§4) During this phase, only the stimulus-appropriate (drug or saline) lever was present. Training began under a fixed ratio 1 (FR 1) schedule of water reinforcement, and the FR requirement was incremented until all animals were responding reliably under an FR 20 schedule for each experimental condition. For half of the rats, left lever responses were reinforced after training drug administration, whereas right lever responses were reinforced after saline administration; conditions were reversed for the remaining animals. During this phase of training, drug and saline were administered irregularly with the restriction that neither condition prevailed for more than three consecutive sessions.
# (§5) After responding stabilized, both levers were presented simultaneously during 15-min training sessions. The rats were required to respond on the stimulus-appropriate (correct) lever to obtain water reinforcement. There were no programmed consequences for responding on the incorrect lever. This phase of training continued until the performance of all rats attained criterion (defined as mean accuracies of at least 80% stimulus-appropriate responding for 10 consecutive sessions).
# (§6) Test sessions were initiated and conducted once or twice per week following attainment of criterion. Training sessions were run during the intervening days to maintain discrimination accuracy. […]
# [2] = tested on: human unedited 5-HT2CR (h5-HT2CR-CHO cells); assay type: cell-based; conditions: for EMAX (%5-HT): maximum 5-HT-induced Cai2+ release in presence of 1 nM peptide derivative, 5-HT vehicle, 10^-11 to 10^-6 M, 5-HT alone = 100%, AUC normalised to crystal violet, mean ± SEM of 4–5 biological replicates, SEM; for change of 5-HT EC50 / potency versus 5-HT alone: pretreatment with 1 nM peptide; for elevation of the maximum Cai2+ release induced by 5-HT: pretreatment with peptide (1 nM), p < 0.05
# PTEN = PTEN lipid phosphatase activity assay (competitive ELISA for PI(4,5)P2); assay type: biochemical; conditions: 15 min preincubation 37°C with 1 ng/µl PTEN, then 4 µM PI(3,4,5)P3 2.25 h, two independent experiments in triplicate
# Method: Lipid phosphatase activity of PTEN was quantified using a PTEN activity ELISA kit (K-4700, Echelon Biosciences, Salt Lake City, UT) following the manufacturer’s protocol. Briefly, 1 ng/µl PTEN enzyme (E-3000, Echelon Bioscience) was incubated with PTEN inhibitor SF1670 (200 µM), 1, 2, and 2 derivatives (10 µM) for 15 min at 37°C. Then, PI(3,4,5)P3 substrate was added for a final concentration of 4 µM, and the reaction was incubated at 37°C for 2.25 h. The lipid phosphatase activity of PTEN was quantified by measuring the amount of PI(4,5)P2 by competitive ELISA in which final absorbance is inversely related to the amount of PI(4,5)P2. The absorbance was measured by FlexStation3 at 450 nm (Molecular Devices). Results are represented as fold change over PTEN + PI(3,4,5)P3 alone (mean ± SD) of two independent experiments run in technical triplicates and analyzed by one-way ANOVA with a priori comparison with PTEN + PI(3,4,5)P3 alone (Dunnett’s; GraphPad Prism 7.02). All statistical analyses were conducted with an experiment-wise error rate of α = 0.05.
# [3] = tested on: cocaine–saline-trained rats; assay: Two-lever drug discrimination, cocaine (5 mg/kg) vs saline; assay type: in vivo, rat; conditions: for cocaine-lever responding, pretreatment before cocaine (2.5 mg/kg): lorcaserin 1 mg/kg (30 min) or SB242084 0.5 mg/kg (45 min) before test; for cocaine-lever responding in substitution test / response rate in substitution test: SB242084 0.5 mg/kg; for cocaine-lever responding in substitution test: cocaine 2.5 mg/kg, i.p.
# Method: as §1, §2, §3, §4, §5, §6
# [4] = tested on: WAY163909–saline-trained rats; assay: Two-lever drug discrimination, WAY163909 (0.75 mg/kg) vs saline; assay type: in vivo, rat
# Method: as §1, §2, §3, §4, §5, §6
# [5] = tested on: human unedited 5-HT2CR (h5-HT2CR-CHO cells); conditions: ref Anastasio et al., 2013; cited from earlier work
# Text: Agonist binding to the 5-HT2CR results in dynamic changes in receptor conformation and induction of a variety of intracellular signaling pathways ([Berg et al., 1994]; [McGrew et al., 2002]; [Werry et al., 2005]; [Labasque et al., 2008]). Best characterized is coupling of the 5-HT2CR to Gαq/11 proteins to activate phospholipase Cβ (PLCβ), resulting in increased intracellular calcium (Cai ^2+) release, among various other signaling outcomes ([Millan et al., 2008]). One approach to selectively target the 5-HT2CR signaling is through protein–protein interactions that are selective for 5-HT2CR ove ...
# [6] = vs previous cocaine maintenance session, lorcaserin 1 mg/kg, p < 0.05
compound,measurement,setting,value
"(S)-1-((S)-4-amino-2-((3S,4S)-4-((S)-1-((S)-1-carboxy-4-guanidinobutylamino)-1-oxo-propan-2-ylcarbamoyl)pyrrolidine-3-carboxamido)-4-oxobutanoyl)pyrrolidine-2-carboxylic acid [compound 7]",drug-lever responding in combination with lorcaserin (0.5 mg/kg),"[1]; combination test, i.p., TAT-r3L4F 2 µmol/kg (p < 0.05), peptide 7 2, 5 µmol/kg","modestly, but not significantly, enhanced"
same,response rate in combination with lorcaserin (0.5 mg/kg),"[1]; combination test, i.p., TAT-r3L4F 2 µmol/kg, peptide 7 2, 5 µmol/kg",no change in rate
same,drug-like responding,"[1]; substitution test, i.p., TAT-r3L4F 1, 2 µmol/kg, peptide 7 1, 2, 5 µmol/kg (data not shown)",< 20%
same,potentiation of 5-HT-induced Cai2+ release (in words),"[2]; 1 nM peptide, Welch's t-test vs 5-HT alone, α = 0.05",potentiated
same,EMAX (%5-HT),[2],125 ± 5.2%
CC(C)(C)C(=O)Nc1ccc2c(c1)C(=O)C(=O)c1ccccc1-2 [SF1670],PTEN lipid phosphatase activity,PTEN; 200 µM inhibitor,suppresses PTEN lipid phosphatase activity
"C[C@H]1CNCCc2ccc(Cl)cc21 [lorcaserin, (1R)-8-chloro-2,3,4,5-tetrahydro-1-methyl-1H-3 benzazepine]",ED50,"[1]; Rattus norvegicus, read-out: ED50 (dose predicted to elicit 50% lorcaserin-lever responding)",0.54 mg/kg
same,response rates after training drug versus saline,"[1]; training sessions, lorcaserin 0.75 mg/kg i.p., p < 0.05",lower than rates after saline
same,lever responding in substitution test (low-dose series),"[3]; TAT-r3L4F alone 1, 2 µmol/kg, lorcaserin alone 0.5 mg/kg, data not shown",saline-appropriate responding
same,full substitution evoked by cocaine (2.5 mg/kg) after lorcaserin (0.5 mg/kg) alone,"[3]; combination test, lorcaserin 0.5 mg/kg + cocaine 2.5 mg/kg",not suppressed
same,"cocaine-lever responding, pretreatment before cocaine (2.5 mg/kg)",[3]; combination test,significantly reduced cocaine lever-appropriate responding
same,"response rate, pretreatment before cocaine (2.5 mg/kg)","[3]; combination test, lorcaserin 1 mg/kg, p < 0.05",significantly reduced
same,behavioral disruption (failure to complete FR 20),"[3]; lorcaserin 1 mg/kg i.p. alone, two rats failed to complete the FR 20 schedule",induces behavioral disruption
same,cocaine-lever responding in substitution test,[3]; lorcaserin 1 mg/kg,engendered primarily saline-lever responding
same,response rates associated with cocaine (2.5 mg/kg),"[3]; lorcaserin alone 0.5 mg/kg, or TAT-r3L4F 1, 2 µmol/kg plus lorcaserin 0.5 mg/kg, p < 0.05",significantly suppressed the response rates
same,response rate in substitution test (low-dose series),"[3]; vs previous cocaine maintenance session, TAT-r3L4F alone 1, 2 µmol/kg, lorcaserin alone 0.5 mg/kg, data not shown",significant reduction in response rates
same,response rate in substitution test,[3]; [6],significant reduction in response rate
same,response rate in substitution test,"[4]; lorcaserin 1 mg/kg (vs saline), TAT-r3L4F 1, 2 µmol/kg (vs previous WAY163909 maintenance session)",suppressed response rates versus saline
same,substitution for WAY163909,"[4]; substitution test, lorcaserin 1 mg/kg i.p.",full substitution
"Ac-PNQDQNARRRKKKERR-NH2 [h3L4F, 16 amino acid peptide homologous to a fragment of the third intracellular loop of the human 5-HT2CR]",effect on 5-HT2CR agonist-mediated Cai2+ release,[5],enhance
same,EMAX (%5-HT),[2],131 ± 6.3%
same,change of 5-HT EC50 / potency versus 5-HT alone,[2],no change in EC50
same,elevation of the maximum Cai2+ release induced by 5-HT,[2],~30%
same,PTEN lipid phosphatase activity,PTEN; 10 µM peptide,do not suppress PTEN lipid phosphatase activity
Cc1cc2c(cc1Cl)N(C(=O)Nc1ccc(Oc3cccnc3C)nc1)CC2 [SB242084],lorcaserin (1 mg/kg)-mediated suppression of cocaine (2.5 mg/kg) lever responding and response rate after SB242084 pretreatment,[3]; SB242084 0.5 mg/kg + lorcaserin 1 mg/kg + cocaine 2.5 mg/kg,fully recovered
same,"cocaine-lever responding, pretreatment before cocaine (2.5 mg/kg)",[3]; combination test,did not alter cocaine lever-responding or response rate
same,cocaine-lever responding in substitution test,[3]; lorcaserin 1 mg/kg,engendered primarily saline-lever responding
same,response rate in substitution test,[3]; [6],slight but significant increase in response rate
"c1cc2c3c(c1)[C@H]1CCC[C@H]1N3CCNC2 [WAY163909, (7b-R,10a-R)-1,2,3,4,8,9,10,10a-octahydro-7bH-cyclopenta[b][1,4] diazepino [6,7,1hi] indole]",substitution for lorcaserin,"[1]; substitution test, WAY163909 0.75 mg/kg i.p., full substitution = ≥80% drug-appropriate responding",full substitution
same,response rate in substitution test,"[1]; vs previous lorcaserin maintenance session, WAY163909 0.75 mg/kg, TAT-r3L4F 2 µmol/kg (trend for 1 µmol/kg)",suppressed response rates similar to the training drug
same,ED50 (WAY163909-lever responding),"[4]; i.p., 15 min before test, 95% CI 0.51–0.61 mg/kg",0.56 mg/kg
same,response rates after training drug versus saline,"[4]; training sessions, WAY163909 0.75 mg/kg i.p., p < 0.05",lower than rates after saline
COC(=O)[C@H]1[C@@H](OC(=O)c2ccccc2)C[C@@H]2CC[C@H]1N2C [cocaine],cocaine-lever responding in substitution test,[3]; lorcaserin 1 mg/kg,full substitution
same,response rates after training drug,"[3]; training sessions, cocaine 5 mg/kg i.p., not statistically different from saline",25.6 ± 0.55 min⁻¹
"Ac-PNQDQNAR-NH2 [compound 2, shorter eight amino acid version of h3L4F]",effect on 5-HT2CR agonist-mediated Cai2+ release,[5],enhance
same,EMAX (%5-HT),[2],118 ± 4.0%
same,change of 5-HT EC50 / potency versus 5-HT alone,[2],no change in EC50
same,elevation of the maximum Cai2+ release induced by 5-HT,[2],~20%
same,PTEN lipid phosphatase activity,PTEN; 10 µM peptide,do not suppress PTEN lipid phosphatase activity
